Assay results published in publication PMC9823088, “The oral selective estrogen receptor degrader GDC-0810 (ARN-810) in postmenopausal women with hormone receptor-positive HER2-negative (HR + /HER2 −) advanced/metastatic breast cancer” (Breast Cancer Research and Treatment, 2022).

Assay: Safety: adverse events (NCI-CTCAE v4.0), DLT, MTD, RP2D
Assay type: in vivo
Experimental: AEs were assessed using the National Cancer Institute-Common Terminology Criteria for Adverse Events (NCI-CTCAE v4.0). […] The protocol-defined GDC-0810-specific AEs of special interest (AESI) which were non-serious adverse events that required expedited reporting to the sponsor, included DLTs occurring during the DLT assessment window, grade ≥ 2 vomiting/diarrhea, grade ≥ 3 nausea, grade ≥ 2 thromboembolic events, grade ≥ 2 vaginal or uterine hemorrhage, and grade ≥ 3 elevation of ALT or AST.
Analyses of safety, pharmacokinetics, anti-tumor activity, and data from the FES-PET imaging correlative studies were planned. Confirmatory inferential analyses and imputation for missing data were not planned due to the exploratory nature of this study. Descriptive statistics were used to summarize patient data. The number of patients to be enrolled was dependent upon the observed safety and pharmacokinetic profile during dose escalations. The safety- and efficacy-evaluable population included patients who received at least one dose of the study drug. Safety was assessed through summaries of DLTs, AEs, changes in select laboratory test results, vital signs, ECGs, and changes in endometrial thickness. Objective response (with confirmation) and clinical benefit rates (CBR) were derived per RECIST v1.1 and summarized by dose level and cohort. […]
polyps, endometrial cancer, endometrial hyperplasia, and other significant disorders); any […]
disease or chronic diarrhea, short bowel syndrome, or upper gastrointestinal surgery; known human immunodeficiency virus (HIV) infection; known clinically significant history of liver disease; major surgery within 4 weeks prior to enrollment; or radiation therapy within 2 weeks […]
There were phase-specific exclusion criteria as well. In phase Ib, cohort C1 excluded patients with a history of venous thromboembolic event requiring therapeutic anticoagulation or vaginal bleeding within 2 months prior to enrollment. In phase IIa, cohorts A1 and A2 excluded patients with >1 chemotherapy in the advanced/metastatic disease setting. In phase IIa, cohort B1 excluded patients with >1 prior AI in the advanced/metastatic disease setting or prior […]
In phase IIa, cohort B2 excluded patients with >1 prior AI or >1 prior chemotherapy in the advanced/metastatic disease setting.
Patients in phase Ia in dose escalation received oral doses of GDC-0810 during 28-day cycles given once daily (QD) or twice-daily (BID), with fasting and without fasting, and with a single dose given on day −7 leading into cycle 1. The starting dose in the first cohort was 100 mg per day based on preclinical studies. Dose escalation to 200 mg and by 200 mg increments in successive cohorts occurred in the absence of dose-limiting toxicities (DLTs), or conditionally in the presence of DLTs. A DLT was defined as any adverse event (AE) occurring during the DLT window deemed by the investigator or sponsor to be related to the study drug unless they were clearly related to disease progression or other cause; DLT incidences were evaluated from day […]
patients in a dose cohort experienced a DLT, 3 additional patients were assigned to that dose; dose escalation to the next level proceeded if DLTs were experienced by ≤1 patient out of 6. If ≥2 patients experienced DLTs at a given dose, a lower dose was to be declared the maximum […]
Phase Ib was a dose-escalation study of GDC-0810 starting at 400 mg QD, as […]
Phase IIa explored the recommended phase 2 dose (RP2D) from phase Ia. All patients received GDC-0810 600 mg under non-fasting conditions. Cohorts A1 and A2 enrolled patients with tumors harboring ESR1 mutations with no prior fulvestrant use in cohort A1 while prior fulvestrant use was allowed in cohort A2. Cohorts B1 and B2 enrolled patients whose disease had progressed and who may have had one or no AI therapy; there was no prior fulvestrant use in cohort B1 while prior fulvestrant use was allowed in cohort B2.
Patients in all three study phases continued treatment until unacceptable toxicity, disease

[1] = phase IIa B2, 600 mg QD, n = 19
[2] = phase Ia cohorts 1–9, 100–800-mg BID, 300–400-mg QD, n = 41
[3] = phase Ib C1, 400 mg QD + palbociclib, n = 4
[4] = phase Ib D1, ≤ 600 mg QD + LHRH agonist, n = 6
[5] = phase Ib and IIa (n=111), grade 2, cohort B1
[6] = phase Ib and IIa (n=111), grade 2, cohort D1
[7] = phase Ib and IIa (n=111), grade 3, cohort A1
[8] = phase Ib and IIa (n=111), grade 3, cohort B1
[9] = phase Ib and IIa (n=111), grade 5, cohort B1
[10] = phase Ib combination treatments

CC/C(=C(/c1ccc(/C=C/C(=O)O)cc1)c1ccc2[nH]ncc2c1)c1ccc(F)cc1Cl [GDC-0810]
Constipation, Grades 3–5 [1]: 0 n (%)
Constipation, all grades [1]: 4 (21) n (%)
Cough, Grades 3–5 [1]: 0 n (%)
Cough, all grades [1]: 4 (21) n (%)
Decreased appetite, Grades 3–5 [1]: 0 n (%)
Decreased appetite, all grades [1]: 2 (11) n (%)
Diarrhea, Grades 3–5 [1]: 0 n (%)
Diarrhea, all grades [1]: 11 (58) n (%)
Dyspepsia, Grades 3–5 [1]: 0 n (%)
Dyspepsia, all grades [1]: 2 (11) n (%)
Fatigue, Grades 3–5 [1]: 0 n (%)
Fatigue, all grades [1]: 7 (37) n (%)
Flatulence, Grades 3–5 [1]: 0 n (%)
Flatulence, all grades [1]: 0 n (%)
Nausea, Grades 3–5 [1]: 0 n (%)
Nausea, all grades [1]: 9 (47) n (%)
Vomiting, Grades 3–5 [1]: 0 n (%)
Vomiting, all grades [1]: 2 (11) n (%)
AEs leading to dose interruption (phase IIa expansion cohorts): 32 (32%) n (%)
AEs leading to dose reduction (phase IIa expansion cohorts): 4 (4%) n (%)
AEs leading to study drug withdrawal (phase IIa expansion cohorts): 3 (3%) n (%)
MTD (maximum tolerated dose) (phase Ia): not reached
time to onset for any grade diarrhea, range (phase Ia): 1 to 176 days
AST increased, Grades 3–5 [2]: 2 (5) n (%)
AST increased, all grades [2]: 17 (42) n (%)
Abdominal pain, Grades 3–5 [2]: 1 (2) n (%)
Abdominal pain, all grades [2]: 12 (29) n (%)
Anemia, Grades 3–5 [2]: 1 (2) n (%)
Anemia, all grades [2]: 18 (44) n (%)
Arthralgia, Grades 3–5 [2]: 0 n (%)
Arthralgia, all grades [2]: 12 (29) n (%)
Constipation, Grades 3–5 [2]: 0 n (%)
Constipation, all grades [2]: 17 (42) n (%)
Cough, Grades 3–5 [2]: 0 n (%)
Cough, all grades [2]: 13 (32) n (%)
Decreased appetite, Grades 3–5 [2]: 0 n (%)
Decreased appetite, all grades [2]: 13 (32) n (%)
Diarrhea, Grades 3–5 [2]: 0 n (%)
Diarrhea, all grades [2]: 32 (78) n (%)
Dyspepsia, Grades 3–5 [2]: 0 n (%)
Dyspepsia, all grades [2]: 11 (27) n (%)
Fatigue, Grades 3–5 [2]: 3 (7) n (%)
Fatigue, all grades [2]: 28 (68) n (%)
Flatulence, Grades 3–5 [2]: 0 n (%)
Flatulence, all grades [2]: 11 (27) n (%)
Nausea, Grades 3–5 [2]: 1 (2) n (%)
Nausea, all grades [2]: 28 (68) n (%)
Vomiting, Grades 3–5 [2]: 1 (2) n (%)
Vomiting, all grades [2]: 16 (39) n (%)
AEs leading to dose interruption (phase Ia dose escalation): 18 (44%) n (%)
AEs leading to dose reduction (phase Ia dose escalation): 5 (12%) n (%)
patients with ≥ 1 AE considered related to GDC-0810 (phase Ia dose escalation): 40 (98%) n (%)
mean time to onset for any grade diarrhea (phase Ia dose-escalation cohorts): 29 days
SAEs considered related to the study drug (phase Ia, grade 4 pulmonary embolism): one of the 20
patients with grade ≥3 AEs related to GDC-0810 (phase Ia, grade 4 pulmonary embolism and two grade 3 diarrhea): 3 (7%) n (%)
deaths (phase Ib): no deaths
AST increased, Grades 3–5 [3]: 0 n (%)
AST increased, all grades [3]: 1 (25) n (%)
Abdominal pain, Grades 3–5 [3]: 0 n (%)
Abdominal pain, all grades [3]: 0 n (%)
Anemia, Grades 3–5 [3]: 0 n (%)
Anemia, all grades [3]: 2 (50) n (%)
Arthralgia, Grades 3–5 [3]: 0 n (%)
Arthralgia, all grades [3]: 1 (25) n (%)
Constipation, Grades 3–5 [3]: 0 n (%)
Constipation, all grades [3]: 0 n (%)
Cough, Grades 3–5 [3]: 0 n (%)
Cough, all grades [3]: 1 (25) n (%)
Decreased appetite, Grades 3–5 [3]: 0 n (%)
Decreased appetite, all grades [3]: 1 (25) n (%)
Diarrhea, Grades 3–5 [3]: 0 n (%)
Diarrhea, all grades [3]: 2 (50) n (%)
Dyspepsia, Grades 3–5 [3]: 0 n (%)
Dyspepsia, all grades [3]: 0 n (%)
Fatigue, Grades 3–5 [3]: 1 (25) n (%)
Fatigue, all grades [3]: 2 (50) n (%)
Flatulence, Grades 3–5 [3]: 0 n (%)
Flatulence, all grades [3]: 0 n (%)
Nausea, Grades 3–5 [3]: 0 n (%)
Nausea, all grades [3]: 3 (75) n (%)
Vomiting, Grades 3–5 [3]: 0 n (%)
Vomiting, all grades [3]: 0 n (%)
AST increased, Grades 3–5 [4]: 0 n (%)
AST increased, all grades [4]: 0 n (%)
Abdominal pain, Grades 3–5 [4]: 0 n (%)
Abdominal pain, all grades [4]: 2 (33) n (%)
Anemia, Grades 3–5 [4]: 0 n (%)
Anemia, all grades [4]: 0 n (%)
Arthralgia, Grades 3–5 [4]: 0 n (%)
Arthralgia, all grades [4]: 1 (17) n (%)
Constipation, Grades 3–5 [4]: 0 n (%)
Constipation, all grades [4]: 3 (50) n (%)
Cough, Grades 3–5 [4]: 0 n (%)
Cough, all grades [4]: 1 (17) n (%)
Decreased appetite, Grades 3–5 [4]: 0 n (%)
Decreased appetite, all grades [4]: 4 (67) n (%)
Diarrhea, Grades 3–5 [4]: 1 (17) n (%)
Diarrhea, all grades [4]: 6 (100) n (%)
Dyspepsia, Grades 3–5 [4]: 0 n (%)
Dyspepsia, all grades [4]: 3 (50) n (%)
Fatigue, Grades 3–5 [4]: 0 n (%)
Fatigue, all grades [4]: 3 (50) n (%)
Flatulence, Grades 3–5 [4]: 0 n (%)
Flatulence, all grades [4]: 1 (17) n (%)
Nausea, Grades 3–5 [4]: 0 n (%)
Nausea, all grades [4]: 4 (67) n (%)
Vomiting, Grades 3–5 [4]: 0 n (%)
Vomiting, all grades [4]: 3 (50) n (%)
SAE Urinary tract infection (phase Ib and IIa (n=111), grade 1, cohort A1): 1 n
SAE Hepatic hemorrhage (phase Ib and IIa (n=111), grade 2, cohort A1): 1 n
SAE Deep vein thrombosis [5]: 1 n
SAE Pneumonia [5]: 1 n
SAE Pleural effusion (phase Ib and IIa (n=111), grade 2, cohort C1): 1 n
SAE Abdominal pain [6]: 1 n
SAE Appendicitis perforated [6]: 1 n
SAE Pain in extremity [6]: 1 n
SAE Ascites [7]: 1 n
SAE Hypertension [7]: 1 n
SAE Vomiting (phase Ib and IIa (n=111), grade 3, cohort A1 (both)): 2 n
SAE Cardiac failure [8]: 1 n
SAE Diarrhea [8]: 1 n
SAE Dyspnea [8]: 1 n
SAE Endometrial hyperplasia [8]: 1 n
SAE Headache [8]: 1 n
SAE Hip fracture [8]: 1 n
SAE Hydronephrosis [8]: 1 n
SAE Seizure [8]: 1 n
SAE Syncope [8]: 1 n
SAE Tumor pain [8]: 1 n
SAE Atrial fibrillation (phase Ib and IIa (n=111), grade 3, cohort C1): 1 n
SAE Pneumonia (phase Ib and IIa (n=111), grade 3, cohorts A2, B1): 2 n
SAE Pulmonary embolism (phase Ib and IIa (n=111), grade 3, cohorts B1, D1): 2 n
SAE Hyponatremia (phase Ib and IIa (n=111), grade 4, cohort B1): 1 n
SAE Sepsis (phase Ib and IIa (n=111), grade 4, cohorts B1, B2): 2 n
SAE Acute kidney injury [9]: 1 n
SAE Breast cancer [9]: 2 n
AEs leading to dose interruption [10]: 5 (50%) n (%)
AEs leading to dose reduction [10]: none
AEs leading to study drug withdrawal [10]: none
vomiting, most common AEs (phases Ib/IIa): 31,28%
RP2D (recommended phase 2 dose) (taken with food / non-fasted): 600 mg QD
